Measurements reported in patent US20030134859A1 (SANKYO COMPANY, LIMITED, priority 2000, published 2003).
Counter-ions that a name gives are not always drawn.

Legend:
leptin production = experiment: Enhancing activity for leptin production in adipocytes (ELISA); format: cell-based, rat; settings: leptin concentration as % of control group; for activity at 1 µM / activity at 0.1 µM / activity at 0.001 µM / activity at 0.01 µM: Rattus norvegicus, Adipocyte, 24 h, read-out: Facilitating activity to produce leptin; for activity at 0.001 µM: 1 nm; for Facilitating activity to produce leptin: 24 hr
In short: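 Collagenase-dispersed epididymal adipocytes from 6-week-old male Wistar Imamichi rats, cultured in DMEM/F-12 (1:1) with test compound at final 1 µM, 100 nM, 10 nM or 1 nM (0.1% DMSO) for 24 h at 37 °C, 5% CO2. Leptin in filtrate measured by ELISA; activity = treated/DMSO-control leptin × 100 (%).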

Rat white adipocytes = experiment: Inhibition of the differentiation of adipocytes (Oil Red O); format: cell-based; settings: 100 nM test compound, 5 days, Oil Red O ABS550, control = 100%, blank = 0%, Table 3; for activity at 0.1 µM: Rattus norvegicus, Adipocyte, 120 h, read-out: Rate of Differentiation (%)
In short: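 Rat white preadipocytes, 5,000 cells/well, given differentiation medium with compound at 100 nM final (0.1% DMSO) for 5 days at 37 °C. Lipid stained with Oil Red O, eluted in DMSO, read at 550 nm; differentiation % relative to DMSO control (100%) and blank (0%).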

Compound | activity at 1 µM (leptin production; 1 μM) | activity at 0.1 µM (leptin production; 100 nm) | activity at 0.1 µM (Rat white adipocytes) | further results
O=C(Nc1ccc(-c2ccccc2)cc1)c1cc([N+](=O)[O-])ccc1Cl [Example 2, N-(4-Phenylphenyl)-(2-chloro-5-nitrophenyl)carboxamide] | 113% | – | – | –
COc1ccc(NC(=O)c2cc([N+](=O)[O-])ccc2Cl)cc1-c1ccccc1 [Example 6, N-(4-Methoxy-3-phenyl)phenyl-(2-chloro-5-nitrophenyl)carboxamide] | 108% | 111% | – | –
O=C(Nc1ccccc1-c1ccccc1)c1cc([N+](=O)[O-])ccc1Cl [Example 7, N-(2-Phenylphenyl)-(2-chloro-5-nitrophenyl)carboxamide] | – | 114% | – | –
Cc1ccc2nc(-c3ccc(NC(=O)c4cc([N+](=O)[O-])ccc4Cl)cc3)sc2c1 [Example 10, N-[4-(6-Methylbenzothiazol-2-yl)phenyl]-(2-chloro-5-nitrophenyl)carboxamide] | 118% | – | 51.1% | –
N#Cc1ccc(NC(=O)c2cc([N+](=O)[O-])ccc2Cl)cc1 [Example 20, N-(4-Cyanophenyl)-(2-chloro-5-nitrophenyl)carboxamide] | 126% | 155% | 57.7% | activity at 0.001 µM (leptin production): 130%; activity at 0.01 µM (leptin production; 10 nm): 135%
CCOC(=O)c1ccc(NC(=O)c2cc([N+](=O)[O-])ccc2Cl)cc1 [Example 26, N-(4-Ethoxycarbonylphenyl)-(2-chloro-5-nitrophenyl)carboxamide] | – | 115% | – | –
CC(C)(C)c1cc(NC(=O)c2cc([N+](=O)[O-])ccc2Cl)cc(C(C)(C)C)c1O [Example 29, N-(3,5-Di-t-butyl-4-hydroxyphenyl)-(2-chloro-5-nitrophenyl)carboxamide] | 142% | – | – | –
Cc1ccccc1-c1csc(NC(=O)c2cc([N+](=O)[O-])ccc2Cl)n1 [Example 39, N-[4-(2-Methylphenyl)thiazol-2-yl]-(2-chloro-5-nitrophenyl)carboxamide] | 119% | 109% | – | –
O=C(Nc1cccnc1)c1cc([N+](=O)[O-])ccc1Cl [Example 50, N-(3-Pyridyl)-(2-chloro-5-nitrophenyl)carboxamide] | 109% | 119% | – | activity at 0.001 µM (leptin production): 118%; activity at 0.01 µM (leptin production; 10 nm): 124%
Cc1ccc(NC(=O)c2cc([N+](=O)[O-])ccc2Cl)nc1 [Example 52, N-(5-Methylpyridin-2-yl)-(2-chloro-5-nitrophenyl)carboxamide] | – | – | – | activity at 0.001 µM (leptin production): 111%
O=C(Nc1ccc2c3c(cccc13)CC2)c1cc([N+](=O)[O-])ccc1Cl [Example 54, N-(Acenaphthen-5-yl)-(2-chloro-5-nitrophenyl)carboxamide] | 113% | – | – | –
Nc1ccc(NC(=O)c2cc([N+](=O)[O-])ccc2Cl)cc1 [Example 58, N-(4-Aminophenyl)-(2-chloro-5-nitrophenyl)carboxamide mono-hydrochloride] | – | – | 51.7% | –
Cc1cc(Cl)nc(NC(=O)c2cc([N+](=O)[O-])ccc2Cl)n1 [Example 78, N-(4-Chloro-6-methylpyrimidin-2-yl)-(2-chloro-5-nitrophenyl)carboxamide] | 114% | 126% | – | –
Cn1c(NC(=O)c2cc([N+](=O)[O-])ccc2Cl)nc2ccccc21 [Example 82, N-(1-Methylbenzimidazol-2-yl)-(2-chloro-5-nitrophenyl)carboxamide] | 111% | 108% | – | –
O=C(Nc1cccc2nsnc12)c1cc([N+](=O)[O-])ccc1Cl [Example 86, N-(2,1,3-Benzothiazol-4-yl)-(2-chloro-5-nitrophenyl)carboxamide] | – | 110% | – | –
CC(C)(C)OC(=O)Nc1ccc(-c2ccc(NC(=O)c3cc([N+](=O)[O-])ccc3Cl)cc2)cc1 [Example 87, N-[4-[4-(tert-Butoxycarbonylamino)phenyl]phenyl]-(2-chloro-5-nitrophenyl)carboxamide] | 115% | 113% | 75.2% | –
Cc1cc(NS(=O)(=O)c2ccc(NC(=O)c3cc([N+](=O)[O-])ccc3Cl)cc2)no1 [Example 99] | – | – | – | Facilitating activity to produce leptin (leptin production; 1 μM): 113.9%
CCCCCCN(CCCCCC)c1ccc(NC(=O)c2cc([N+](=O)[O-])ccc2Cl)cc1 [Example 138, N-[4-(N,N-di-n-Hexylamino)phenyl]-(2-chloro-5-nitrophenyl)carboxamide] | 111% | – | – | –

Compound | activity at 1 µM (leptin production; 1 μM) | activity at 0.1 µM (leptin production; 100 nm) | activity at 0.1 µM (Rat white adipocytes) | further results
CN(C)c1cccc(NC(=O)c2cc([N+](=O)[O-])ccc2Cl)c1 [Example 176, N-(3-Dimethylamino)phenyl-(2-chloro-5-nitrophenyl)carboxamide] | – | 110% | – | –
O=C(Nc1ccc(S(=O)(=O)Nc2cccnc2)cc1)c1cc([N+](=O)[O-])ccc1Cl [Example 178] | 117% | – | – | –
O=C(Nc1cccc(O)c1)c1cc([N+](=O)[O-])ccc1Cl [Example 191, N-(3-Hydroxyphenyl)-(2-chloro-5-nitrophenyl)carboxamide] | – | – | 63.4% | –
CCCCCCNc1ccc(-c2ccc(NC(=O)c3cc([N+](=O)[O-])ccc3Cl)cc2)cc1 [Example 195, N-[4-[4-(N-Hexylamino)phenyl]phenyl]-(2-chloro-5-nitrophenyl)carboxamide] | 120% | 123% | 36.5% | activity at 0.01 µM (leptin production; 10 nm): 114%
CCCCCCN(C)c1ccc(-c2ccc(NC(=O)c3cc([N+](=O)[O-])ccc3Cl)cc2)cc1 [Example 196, N-[4-[4-(N-Hexyl-N-methylamino)phenyl]phenyl]-(2-chloro-5-nitrophenyl)carboxamide] | – | – | 53.4% | –
CCCCCCN(CC)c1ccc(-c2ccc(NC(=O)c3cc([N+](=O)[O-])ccc3Cl)cc2)cc1 [Example 197, N-[4-[4-(N-Ethyl-N-hexylamino)phenyl]phenyl]-(2-chloro-5-nitrophenyl)carboxamide] | – | – | 45.7% | –
CCCCCCCCNc1ccc(-c2ccc(NC(=O)c3cc([N+](=O)[O-])ccc3Cl)cc2)cc1 [Example 219, N-[4-[4-(N-Octylamino)phenyl]phenyl]-(2-chloro-5-nitrophenyl)carboxamide] | 117% | 119% | 36.6% | activity at 0.01 µM (leptin production; 10 nm): 113%
CCCCCCCCN(CCCCCC)c1ccc(-c2ccc(NC(=O)c3cc([N+](=O)[O-])ccc3Cl)cc2)cc1 [Example 220, N-[4-[4-(N-Hexyl-N-octylamino)phenyl]phenyl]-(2-chloro-5-nitrophenyl)carboxamide mono-hydrochloride] | 111% | – | 38.4% | –
CCCCCCCCN(CCCC)c1ccc(-c2ccc(NC(=O)c3cc([N+](=O)[O-])ccc3Cl)cc2)cc1 [Example 222, N-[4-[4-(N-Butyl-N-octylamino)phenyl]phenyl]-(2-chloro-5-nitrophenyl)carboxamide] | 114% | 109% | 48.6% | activity at 0.01 µM (leptin production; 10 nm): 110%
CCCCCCCCN(CCCC)c1ccc(-c2ccc(NC(=O)c3cc([N+](=O)[O-])ccc3Cl)cc2)cc1.Cl [Example 223, N-[4-[4-(N-Butyl-N-octylamino)phenyl]phenyl]-(2-chloro-5-nitrophenyl)carboxamide mono-hydrochloride] | – | – | – | Rate of Differentiation (%) (Rat white adipocytes): 35.0%; Facilitating activity to produce leptin (leptin production; 1 μM): 115.9%; Facilitating activity to produce leptin (leptin production; 10 nm): 109.0%; Facilitating activity to produce leptin (leptin production; 100 nm): 115.2%
CCN(c1ccc(NS(=O)(=O)c2ccc(NC(=O)c3cc([N+](=O)[O-])ccc3Cl)cc2)cc1)C(C)C [Example 232, N-[[4-[4-(N-Ethyl-N-isopropylamino)phenyl]aminosulfonyl]phenyl]-(2-chloro-5-nitrophenyl)carboxamide] | – | – | 45.4% | –
CC(C)(C)OC(=O)Nc1cccc(-c2csc(NC(=O)c3cc([N+](=O)[O-])ccc3Cl)n2)c1 [Example 234, N-[4-(3-tert-Butoxycarbonylaminophenyl)thiazol-2-yl]-(2-chloro-5-nitrophenyl)carboxamide] | – | – | 60.5% | –
CC(O)c1cccc(NC(=O)c2cc([N+](=O)[O-])ccc2Cl)c1 (centres unmarked) [Example 239, N-[3-(1-Hydroxyethyl)phenyl]-(2-chloro-5-nitrophenyl)carboxamide] | – | – | 52.8% | –
O=C(Nc1ccc(NC(=S)Nc2cccnc2)cc1)c1cc([N+](=O)[O-])ccc1Cl [Example 257, N-[4-[(Pyridin-3-yl)aminothiocarbonylamino]phenyl]-(2-chloro-5-nitrophenyl)carboxamide] | – | – | 59.8% | –
O=C(Nc1ccc(CCNC(=S)Nc2cccnc2)cc1)c1cc([N+](=O)[O-])ccc1Cl [Example 273, N-[4-[2-(Pyridin-3-yl)aminothiocarbonylaminoethyl]phenyl]-(2-chloro-5-nitrophenyl)carboxamide] | – | – | 47.9% | –
N-(Ethoxyphenyl)-(2-chloro-5-nitrophenyl)carboxamide [Example 229] | – | – | – | Rate of Differentiation (%) (Rat white adipocytes): 62.7%
N-[4-(Pyrrolidinylsulfonyl)phenyl]-(2-chloro-5-nitrophenyl)carboxamide [Example 152] | – | – | – | Facilitating activity to produce leptin (leptin production; 100 nm): 116.4%
